Source: ChEMBL document CHEMBL3045684, “Compatibility of traditional and novel acaricides with bumblebees (Bombus terrestris): a first laboratory assessment of toxicity and sublethal effects” (Pest Manag Sci, 2010)
Active and inactive are the calls of the source. No cut-off for these calls is given here.

Columns and labels:
Bombus terrestris [1] = test: Contact toxicity against worker Bombus terrestris (bumblebee) assessed as mortality at 3 mg a.i./l applied on the dorsal thorax for 11 weeks measured everyday for 3 days followed by once a week for 11 weeks; assay type: functional
Bombus terrestris [2] = test: Toxicity against worker Bombus terrestris (bumblebee) assessed as reduction in reproduction at 3 mg a.i./l, po administered through sugar water for 11 weeks measured once a week for 11 weeks relative to control; assay type: functional, organism-based
Bombus terrestris [3] = test: Toxicity against worker Bombus terrestris (bumblebee) assessed as reduction in reproduction at 3 mg a.i./l, po administered through pollen for 11 weeks measured once a week for 11 weeks; assay type: functional; set-up: scale not given: the % may be the effect or the level left
Bombus terrestris [4] = test: Toxicity against worker Bombus terrestris (bumblebee) assessed as mortality at 3 mg a.i./l, po administered through sugar water for 11 weeks measured everyday for 3 days followed by once a week for 11 weeks; assay type: functional
Bombus terrestris [5] = test: Contact toxicity against worker Bombus terrestris (bumblebee) assessed as reduction in reproduction at 3 mg a.i./l applied on the dorsal thorax for 11 weeks measured once a week for 11 weeks relative to control; assay type: functional, organism-based
Bombus terrestris [6] = test: Toxicity against worker Bombus terrestris (bumblebee) assessed as mortality at 3 mg a.i./l, po administered through pollen for 11 weeks measured everyday for 3 days followed by once a week for 11 weeks; assay type: functional
Bombus terrestris [7] = test: Toxicity against worker Bombus terrestris (bumblebee) assessed as mortality at 50 mg a.i./l, po administered through sugar water for 11 weeks measured everyday for 3 days followed by once a week for 11 weeks; assay type: functional
Bombus terrestris [8] = test: Toxicity against worker Bombus terrestris (bumblebee) assessed as mortality at 50 mg a.i./l, po administered through sugar water measured after 4 to 6 weeks; assay type: functional, organism-based
Bombus terrestris [9] = test: Toxicity against worker Bombus terrestris (bumblebee) assessed as mortality at 50 mg a.i./l, po administered through pollen for 11 weeks measured everyday for 3 days followed by once a week for 11 weeks; assay type: functional, organism-based
Bombus terrestris [10] = test: Toxicity against worker Bombus terrestris (bumblebee) assessed as reduction in reproduction at 50 mg a.i./l, po administered through sugar water for 11 weeks measured once a week for 11 weeks relative to control; assay type: functional; set-up: scale not given: the % may be the effect or the level left
Bombus terrestris [11] = test: Toxicity against worker Bombus terrestris (bumblebee) assessed as reduction in reproduction at 50 mg a.i./l, po administered through pollen for 11 weeks measured once a week for 11 weeks; assay type: functional; set-up: scale not given: the % may be the effect or the level left
[12] = n-octanol-water distribution coefficient, log KOW of the compound; assay type: physicochemical; details: read-out: log KOW
Bombus terrestris [13] = test: Contact toxicity against worker Bombus terrestris (bumblebee) assessed as mortality at 50 mg a.i./l applied on the dorsal thorax for 11 weeks measured everyday for 3 days followed by once a week for 11 weeks; assay type: functional
Apis mellifera [14] = test: Toxicity against Apis mellifera (honey bee) assessed as adverse efffect at 250 mg/l; assay type: functional, organism-based
Bombus terrestris [15] = test: Contact toxicity against worker Bombus terrestris (bumblebee) assessed as reduction in reproduction at 50 mg a.i./l applied on the dorsal thorax for 11 weeks measured once a week for 11 weeks relative to control; assay type: functional, organism-based
Bombus terrestris [16] = test: Toxicity against worker Bombus terrestris (bumblebee) assessed as mortality at 18 mg a.i./l, po administered through sugar water for 11 weeks measured everyday for 3 days followed by once a week for 11 weeks; assay type: functional
Aphidius colemani = test: Contact toxicity against Aphidius colemani assessed as mortality at 8.5 mg a.i./l; assay type: functional
Bombus terrestris [17] = test: Toxicity against worker Bombus terrestris (bumblebee) assessed as mortality at 18 mg a.i./l, po administered through sugar water measured after 9 weeks; assay type: functional; details: 1512 h
Bombus terrestris [18] = test: Contact toxicity against worker Bombus terrestris (bumblebee) assessed as mortality at 18 mg a.i./l applied on the dorsal thorax measured after 3 to 4 weeks; assay type: functional, organism-based
Apis mellifera [19] = test: Toxicity against po dosed Apis mellifera (honey bee) assessed per bee after 24 hr; assay type: functional
Bombus terrestris [20] = test: Toxicity against worker Bombus terrestris (bumblebee) assessed as reduction in reproduction at 18 mg a.i./l, po administered through pollen for 11 weeks measured once a week for 11 weeks; assay type: functional, organism-based
Apis mellifera [21] = test: Contact toxicity against Apis mellifera (honey bee) assessed per bee after 24 hr; assay type: functional
Bombus terrestris [22] = test: Toxicity against worker Bombus terrestris (bumblebee) assessed as mortality at 18 mg a.i./l, po administered through pollen measured after 7 weeks; assay type: functional; details: 1176 h
Bombus terrestris [23] = test: Toxicity against worker Bombus terrestris (bumblebee) assessed as mortality at 18 mg a.i./l, po administered through pollen for 11 weeks measured everyday for 3 days followed by once a week for 11 weeks; assay type: functional
Bombus terrestris [24] = test: Toxicity against worker Bombus terrestris (bumblebee) assessed as mortality at 18 mg a.i./l, po administered through sugar water measured after 11 weeks; assay type: functional; details: 1848 h
Bombus terrestris [25] = test: Toxicity against worker Bombus terrestris (bumblebee) assessed as mortality at 18 mg a.i./l, po administered through pollen measured after 3 weeks; assay type: functional; details: 504 h
Bombus terrestris [26] = test: Toxicity against worker Bombus terrestris (bumblebee) assessed as mortality at 18 mg a.i./l, po administered through sugar water measured after 7 weeks; assay type: functional; details: 1176 h
Bombus terrestris [27] = test: Contact toxicity against worker Bombus terrestris (bumblebee) assessed as reduction in reproduction at 18 mg a.i./l applied on the dorsal thorax for 11 weeks measured once a week for 11 weeks relative to control; assay type: functional, organism-based
Bombus terrestris [28] = test: Contact toxicity against worker Bombus terrestris (bumblebee) assessed as mortality at 18 mg a.i./l applied on the dorsal thorax for 11 weeks measured everyday for 3 days followed by once a week for 11 weeks; assay type: functional
Bombus terrestris [29] = test: Toxicity against po dosed worker Bombus terrestris (bumblebee) administered through sugar water for 11 weeks measured everyday for 3 days followed by once a week for 11 weeks; assay type: functional
Bombus terrestris [30] = test: Toxicity against worker Bombus terrestris (bumblebee) assessed as mortality at 18 mg a.i./l, po administered through sugar water measured after 1 week; assay type: functional; details: 168 h
Bombus terrestris [31] = test: Toxicity against worker Bombus terrestris (bumblebee) assessed as mortality at 400 mg a.i./l, po administered through pollen for 11 weeks measured everyday for 3 days followed by once a week for 11 weeks; assay type: functional
Bombus terrestris [32] = test: Contact toxicity against worker Bombus terrestris (bumblebee) assessed as mortality at 400 mg a.i./l applied on the dorsal thorax for 11 weeks measured everyday for 3 days followed by once a week for 11 weeks; assay type: functional
Bombus terrestris [33] = test: Toxicity against worker Bombus terrestris (bumblebee) assessed as reduction in reproduction at 400 mg a.i./l, po administered through pollen for 11 weeks measured once a week for 11 weeks; assay type: functional; set-up: scale not given: the % may be the effect or the level left
Bombus terrestris [34] = test: Toxicity against worker Bombus terrestris (bumblebee) assessed as mortality at 400 mg a.i./l, po administered through sugar water measured up to 1 week; assay type: functional, organism-based
Bombus terrestris [35] = test: Toxicity against worker Bombus terrestris (bumblebee) assessed as mortality at 400 mg a.i./l, po administered through sugar water for 11 weeks measured everyday for 3 days followed by once a week for 11 weeks; assay type: functional
Bombus terrestris [36] = test: Contact toxicity against worker Bombus terrestris (bumblebee) assessed as reduction in reproduction at 400 mg a.i./l applied on the dorsal thorax for 11 weeks measured once a week for 11 weeks relative to control; assay type: functional, organism-based
Bombus terrestris [37] = test: Toxicity against worker Bombus terrestris (bumblebee) assessed as reduction in reproduction at 400 mg a.i./l, po administered through sugar water for 11 weeks measured once a week for 11 weeks relative to control; assay type: functional, organism-based

C[C@@H]1[C@@H](c2ccc(Cl)cc2)SC(=O)N1C(=O)NC1CCCCC1 (relative stereo) [HEXYTHIAZOX]
mortality at 3 µg/mL (Bombus terrestris [1]): < 25%
Activity (Bombus terrestris [2]): Active
Activity (Bombus terrestris [3]): 50%
mortality at 3 µg/mL (Bombus terrestris [4]): < 25%
Activity (Bombus terrestris [5]): inactive
mortality at 3 µg/mL (Bombus terrestris [6]): 90%

Cc1nn(C)c(Oc2ccccc2)c1/C=N/OCc1ccc(C(=O)OC(C)(C)C)cc1 [FENPYROXYMATE]
mortality at 50 µg/mL (Bombus terrestris [7]): 95%
Activity (Bombus terrestris [8]): Active
Activity (Bombus terrestris [9]): inactive
Activity (Bombus terrestris [10]): 90%
Activity (Bombus terrestris [11]): 50%
logP [12]: 5.01
mortality at 50 µg/mL (Bombus terrestris [13]): < 25%
Activity (Apis mellifera [14]): inactive
Activity (Bombus terrestris [15]): inactive

CC[C@H](C)[C@H]1O[C@]2(C=C[C@@H]1C)C[C@@H]1C[C@@H](C/C=C(\C)[C@@H](O[C@H]3C[C@H](OC)[C@@H](O[C@H]4C[C@H](OC)[C@@H](O)[C@H](C)O4)[C@H](C)O3)[C@@H](C)/C=C/C=C3\CO[C@@H]4[C@H](O)C(C)=C[C@@H](C(=O)O1)[C@]34O)O2.CO[C@H]1C[C@H](O[C@H]2[C@H](C)O[C@@H](O[C@@H]3/C(C)=C/C[C@@H]4C[C@@H](C[C@]5(C=C[C@H](C)[C@@H](C(C)C)O5)O4)OC(=O)[C@@H]4C=C(C)[C@@H](O)[C@H]5OC/C(=C\C=C\[C@@H]3C)[C@]54O)C[C@@H]2OC)O[C@@H](C)[C@@H]1O [ABAMECTIN]
mortality at 18 µg/mL (Bombus terrestris [16]): 95%
mortality at 8.5 µg/mL (Aphidius colemani): 100%
mortality at 18 µg/mL (Bombus terrestris [17]): 80%
Activity (Bombus terrestris [18]): Active
LD50 (Apis mellifera [19]): 0.009 µg
Activity (Bombus terrestris [20]): Active
LD50 (Apis mellifera [21]): 0.002 µg
mortality at 18 µg/mL (Bombus terrestris [22]): 60%
mortality at 18 µg/mL (Bombus terrestris [23]): 90%
mortality at 18 µg/mL (Bombus terrestris [24]): 100%
mortality at 18 µg/mL (Bombus terrestris [25]): 40%
mortality at 18 µg/mL (Bombus terrestris [26]): 40%
Activity (Bombus terrestris [27]): Active
mortality at 18 µg/mL (Bombus terrestris [28]): 100%
LC50 (Bombus terrestris [29]): 1.17 mgAi/L
NOAEL (Bombus terrestris [29]): 0.18 mgAi/L
mortality at 18 µg/mL (Bombus terrestris [30]): 20%

Cc1ccc(/N=C/N(C)/C=N/c2ccc(C)cc2C)c(C)c1 [AMITRAZ]
mortality at 400 µg/mL (Bombus terrestris [31]): 90%
mortality at 400 µg/mL (Bombus terrestris [32]): < 25%
Activity (Bombus terrestris [33]): 50%
Activity (Bombus terrestris [34]): Active
mortality at 400 µg/mL (Bombus terrestris [35]): 95%
Activity (Bombus terrestris [36]): inactive
Activity (Bombus terrestris [37]): Active
